“And” between values parts separate entries of the source, which are not always exact repeats. Equal entries are not always repeated. Records with an inconclusive call do not appear.
Test system: MX-1 breast xenograft, intrarenal, nude mice, tumor weight
Assay: NCI In Vivo Anticancer Drug Screen. Data for tumor model Human Mammary Carcinoma MX-1 Xenograft (intrarenal inoculation) in NU/NU BALB/C (nude) mice
Conditions: endpoint: mean tumor weight change, higher = larger tumour
Procedure, shortened: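 Compounds were given to mice carrying transplanted tumors, and tumor size or survival was measured. Each value is the treated-group measurement (T) divided by the vehicle-treated control-group measurement (C).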

[1] = dose: 0.5 mg/kg/injection, schedule: Q04DX003 (ip), vehicle: Klucel (hydroxypropylcellulose) (HPC)
[2] = dose: 1.0 mg/kg/injection, schedule: Q04DX003 (ip), vehicle: Klucel (hydroxypropylcellulose) (HPC)
[3] = dose: 150.0 mg/kg/injection, schedule: Q04DX003 (sc), vehicle: saline
[4] = dose: 300.0 mg/kg/injection, schedule: Q04DX003 (sc), vehicle: saline

CC(=O)OCC(=O)[C@@]12OC(C)(C)O[C@@H]1C[C@H]1[C@@H]3CC(C=O)=C4C=C(OCCCl)CC[C@]4(C)[C@@]3(F)[C@@H](O)C[C@@]12C
T/C (dose: 25.0 mg/kg/injection, schedule: Q04DX003 (sc), vehicle: Klucel (hydroxypropylcellulose) (HPC)): 93 % of control | T/C (dose: 50.0 mg/kg/injection, schedule: Q04DX003 (sc), vehicle: Klucel (hydroxypropylcellulose) (HPC)): 81 % of control | T/C (dose: 100.0 mg/kg/injection, schedule: Q04DX003 (sc), vehicle: Klucel (hydroxypropylcellulose) (HPC)): 71 % of control | T/C (dose: 200.0 mg/kg/injection, schedule: Q04DX003 (sc), vehicle: Klucel (hydroxypropylcellulose) (HPC)): 78 % of control

CCCn1c(SC)nc(COC(=O)NC)c1COC(=O)NC
T/C (dose: 30.0 mg/kg/injection, schedule: Q04DX003 (ip), vehicle: saline): 62 % of control | T/C (dose: 60.0 mg/kg/injection, schedule: Q04DX003 (ip), vehicle: saline): 38 % of control | T/C (dose: 120.0 mg/kg/injection, schedule: Q04DX003 (ip), vehicle: saline): 7 % of control | T/C (dose: 240.0 mg/kg/injection, schedule: Q04DX003 (ip), vehicle: saline): -100 % of control

CO[C@H](/C(C)=C/C=C/C(C)=C/c1coc(C)n1)[C@H](C)[C@H]1C[C@@H](O)[C@@]2(C)O[C@H]2/C=C/[C@@H](C)[C@@H]2C[C@@H](CC(=O)O2)C[C@H]2O[C@@H]2C(=O)O1
T/C (dose: 0.13 mg/kg/injection, schedule: Q04DX003 (ip), vehicle: other): 62 % of control | T/C (dose: 0.2 mg/kg/injection, schedule: Q04DX003 (ip), vehicle: other): 67 % of control | T/C (dose: 0.25 mg/kg/injection, schedule: Q04DX003 (ip), vehicle: Klucel (hydroxypropylcellulose) (HPC)): 10 % of control | T/C (dose: 0.25 mg/kg/injection, schedule: Q04DX003 (sc), vehicle: Klucel (hydroxypropylcellulose) (HPC)): 46 % of control and 55 % of control and 63 % of control | T/C (dose: 0.3 mg/kg/injection, schedule: Q04DX003 (ip), vehicle: other): 55 % of control | T/C (dose: 0.44 mg/kg/injection, schedule: Q04DX003 (ip), vehicle: other): 27 % of control | T/C [1]: 7 % of control | T/C (dose: 0.5 mg/kg/injection, schedule: Q04DX003 (sc), vehicle: Klucel (hydroxypropylcellulose) (HPC)): 35 % of control and 36 % of control and 41 % of control | T/C [2]: 5 % of control | T/C (dose: 1.0 mg/kg/injection, schedule: Q04DX003 (sc), vehicle: Klucel (hydroxypropylcellulose) (HPC)): 4 % of control and 19 % of control

Nc1nc2c(ncn2C2OC(CO)C(O)C2O)c(=O)[nH]1 (stereo not given)
T/C (dose: 300.0 mg/kg/injection, schedule: Q04DX003 (sc), vehicle: saline with Tween-80): 84 % of control | T/C (dose: 600.0 mg/kg/injection, schedule: Q04DX003 (sc), vehicle: saline with Tween-80): 81 % of control | T/C (dose: 1200.0 mg/kg/injection, schedule: Q04DX003 (sc), vehicle: saline with Tween-80): 82 % of control | T/C (dose: 2400.0 mg/kg/injection, schedule: Q04DX003 (sc), vehicle: saline with Tween-80): 88 % of control

CNC(=O)O/N=C(\CN=[N+]=[N-])C(C)(C)C
T/C (dose: 0.63 mg/kg/injection, schedule: Q04DX003 (sc), vehicle: saline): 116 % of control | T/C (dose: 1.25 mg/kg/injection, schedule: Q04DX003 (sc), vehicle: saline): 71 % of control | T/C (dose: 2.5 mg/kg/injection, schedule: Q04DX003 (sc), vehicle: saline): 84 % of control

C#CCNC1=C(C)C(=O)C2=C(C1=O)[C@H](COC(N)=O)[C@]1(OC)[C@@H]3N[C@@H]3CN21
T/C (dose: 1.85 mg/kg/injection, schedule: Q04DX003 (ip), vehicle: distilled water + Tween-80): 48 % of control | T/C (dose: 1.88 mg/kg/injection, schedule: Q04DX003 (ip), vehicle: distilled water + Tween-80): 97 % of control | T/C (dose: 3.75 mg/kg/injection, schedule: Q04DX003 (ip), vehicle: distilled water + Tween-80): 49 % of control and 55 % of control

COc1cccc2c1C(=O)c1c(O)c3c(c(O)c1C2=O)C[C@@](O)(/C(C)=N\O)C[C@@H]3OC1CC(N)C(O)C(C)O1 (stereo not given in full)
T/C (dose: 12.5 mg/kg/injection, schedule: Q04DX003 (sc), vehicle: saline): 64 % of control | T/C (dose: 25.0 mg/kg/injection, schedule: Q04DX003 (sc), vehicle: saline): 58 % of control | T/C (dose: 50.0 mg/kg/injection, schedule: Q04DX003 (sc), vehicle: saline): 23 % of control

COc1cc2c(ccc3c4cc(OC)c(OC)cc4c[n+](C)c23)cc1O
T/C [3]: 83 % of control | T/C [4]: 74 % of control | T/C (dose: 600.0 mg/kg/injection, schedule: Q04DX003 (sc), vehicle: saline): 79 % of control | T/C (dose: 1200.0 mg/kg/injection, schedule: Q04DX003 (sc), vehicle: saline): 68 % of control

CC1=C[P+](c2ccccc2)(c2ccccc2)C=C(c2ccccc2)O1
T/C (dose: 0.75 mg/kg/injection, schedule: Q04DX003 (ip), vehicle: saline): 124 % of control

Oc1ccc(CCl)c2cccnc12
T/C (dose: 75.0 mg/kg/injection, schedule: Q04DX003 (sc), vehicle: saline): 120 % of control | T/C [3]: 99 % of control | T/C [4]: 87 % of control

C[C@@](O)(/C=C/[C@H]1CC=CC(=O)O1)[C@@H](C[C@@H](O)\C=C/C=C\C=C\CO)OP(=O)(O)O
T/C (dose: 1.5 mg/kg/injection, schedule: Q01DX009 (ip), vehicle: other): 113 % of control | T/C (dose: 6.0 mg/kg/injection, schedule: Q01DX009 (ip), vehicle: other): 57 % of control | T/C (dose: 12.0 mg/kg/injection, schedule: Q01DX009 (ip), vehicle: other): 61 % of control | T/C (dose: 37.5 mg/kg/injection, schedule: Q04DX003 (sc), vehicle: other): 29 % of control

O=C1C=C(N2CC2)C(=O)C(N2CC2)=C1N1CC1
T/C (dose: 25.0 micrograms/kg/injection, schedule: Q04DX003 (ip), vehicle: saline): 4 % of control | T/C (dose: 400.0 micrograms/kg/injection, schedule: Q04DX003 (ip), vehicle: saline): -100 % of control

CNc1nc(N(C)C)nc(N(C)C)n1
T/C (dose: 30.0 mg/kg/injection, schedule: Q01DX010 (sc), vehicle: water): 1 % of control | T/C (dose: 60.0 mg/kg/injection, schedule: Q01DX010 (sc), vehicle: water): -31 % of control | T/C (dose: 120.0 mg/kg/injection, schedule: Q01DX010 (sc), vehicle: water): -94 % of control

COc1nc(C(Cl)(Cl)Cl)c(Cl)c(OC)c1Cl
T/C (dose: 89.0 mg/kg/injection, schedule: Q04DX003 (oral), vehicle: Klucel (hydroxypropylcellulose) (HPC)): -100 % of control | T/C (dose: 133.5 mg/kg/injection, schedule: Q04DX003 (oral), vehicle: Klucel (hydroxypropylcellulose) (HPC)): -100 % of control | T/C (dose: 200.0 mg/kg/injection, schedule: Q04DX003 (oral), vehicle: Klucel (hydroxypropylcellulose) (HPC)): -100 % of control | T/C (dose: 300.0 mg/kg/injection, schedule: Q04DX003 (oral), vehicle: Klucel (hydroxypropylcellulose) (HPC)): -100 % of control | T/C (dose: 450.0 mg/kg/injection, schedule: Q04DX003 (oral), vehicle: Klucel (hydroxypropylcellulose) (HPC)): -100 % of control

CC1(C)Nc2cc3c(cc2-n2cccc21)oc1ccccc13
T/C (dose: 150.0 mg/kg/injection, schedule: Q04DX003 (ip), vehicle: DMSO): 113 % of control | T/C (dose: 300.0 mg/kg/injection, schedule: Q04DX003 (ip), vehicle: DMSO): 90 % of control | T/C (dose: 600.0 mg/kg/injection, schedule: Q04DX003 (ip), vehicle: DMSO): 83 % of control | T/C (dose: 1200.0 mg/kg/injection, schedule: Q04DX003 (ip), vehicle: DMSO): 80 % of control

Cc1nc(N)nc(N)c1N1CCN(c2ccc(C(=O)NC(CCC(=O)O)C(=O)O)cc2)CC1 (stereo not given)
T/C (dose: 12.5 mg/kg/injection, schedule: Q04DX003 (ip), vehicle: other): 85 % of control | T/C (dose: 25.0 mg/kg/injection, schedule: Q04DX003 (ip), vehicle: other): 112 % of control | T/C (dose: 50.0 mg/kg/injection, schedule: Q04DX003 (ip), vehicle: other): 122 % of control | T/C (dose: 100.0 mg/kg/injection, schedule: Q04DX003 (ip), vehicle: other): 87 % of control

CN(Cc1cnc2nc(N)nc(N)c2n1)c1ccc(C(=O)N[C@@H](CCC(=O)O)C(=O)O)cc1
T/C (dose: 3.0 mg/kg/injection, schedule: Q04DX003 (sc), vehicle: sodium bicarbonate): 152 % of control | T/C (dose: 6.0 mg/kg/injection, schedule: Q04DX003 (sc), vehicle: sodium bicarbonate): 162 % of control | T/C (dose: 12.0 mg/kg/injection, schedule: Q04DX003 (sc), vehicle: sodium bicarbonate): 112 % of control | T/C (dose: 18.0 mg/kg/injection, schedule: Q04DX003 (ip), vehicle: sodium bicarbonate): 55 % of control | T/C (dose: 24.0 mg/kg/injection, schedule: Q04DX003 (sc), vehicle: sodium bicarbonate): 80 % of control

COC(=O)C12OCC34C(CC5C(C)C6=CC(=O)OC6=CC5(C)C3C(O)C1O)OC(=O)C(O)C24 (stereo not given)
T/C [1]: 75 % of control | T/C [2]: 77 % of control | T/C (dose: 2.0 mg/kg/injection, schedule: Q04DX003 (ip), vehicle: Klucel (hydroxypropylcellulose) (HPC)): 69 % of control | T/C (dose: 4.0 mg/kg/injection, schedule: Q04DX003 (ip), vehicle: Klucel (hydroxypropylcellulose) (HPC)): 45 % of control

— PubChem BioAssay AID298 (DTP/NCI, 2004)
